Structures can show the parent of a compound that is named as a salt. Where two headings read alike, the source gives them in different places.
Experiments:
[1] = target: β-CA from Malassezia globosa (MgCA); parameters: method as in PMID 29152053; conditions: cited from earlier work
[2] = target: β-CA from Malassezia restricta (MreCA) (Malassezia restricta, UniProt A0A3G2S4B9); test: biochemical; type: biochemical
[3] = target: hCA I; conditions: cited from earlier work
[4] = system: hCA II; conditions: cited from earlier work; for Ki: pH 8.3
[5] = CO2 hydration reaction, 20 °C, pH 8.3, stopped flow, ref [31]

Chain of β-CA from Malassezia restricta (MreCA) (A0A3G2S4B9 1-238): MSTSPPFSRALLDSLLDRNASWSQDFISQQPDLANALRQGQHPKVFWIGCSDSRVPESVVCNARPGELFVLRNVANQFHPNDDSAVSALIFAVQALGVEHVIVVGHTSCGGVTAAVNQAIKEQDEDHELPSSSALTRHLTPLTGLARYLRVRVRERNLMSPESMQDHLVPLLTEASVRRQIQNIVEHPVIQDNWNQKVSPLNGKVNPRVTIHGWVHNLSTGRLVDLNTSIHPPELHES

Row | Compound | Ki ([1]; pH 8.3) [mM] | Ki ([2]; pH 8.3, read-out: KI MreCA) [mM] | Ki [1, 5] [mM] | further results
1 | O=S(=O)(O)O [SO4^2−, sulfate] | 19.5 |  |  | 
2 | OB1OB2OB(O)OB(O1)O2 [B4O7^2−, tetraborate] | 8.45 | 0.4 |  | 
3 | [O]=[V]([OH])([OH])[O][V](=[O])([OH])[OH] [V2O7^2−, divanadate] |  | > 50 | 6.89 | Ki [3, 5]: 0.54 mM
4 | NS(=O)(=O)O [NH2SO3H, sulfamic acid] |  | 7.7 | 0.083 | Ki [3, 5]: 0.021 mM
5 | O=[Se](=O)(O)O [SeO4^2−] | 7.41 | 1.7 |  | 
6 | NS(N)(=O)=O [Inhibitor H2NSO2NH2, sulfamide] |  | 0.72 | 0.094 | 
7 | N#C[SeH] [SeCN^−, selenocyanate] | 1.73 | 0.65 |  | Ki ([3]; pH 8.3): 0.085 mM
8 | Cl [Cl^−, chloride] | 7.98 | > 50 |  | Ki ([3]; pH 8.3): 6 mM
9 | O=S(=O)(O)NS(=O)(=O)O [NH(SO3)2^2−, iminodisulfite] |  | > 50 | 21.4 | Ki [3, 5]: 0.31 mM
10 | O=[N+]([O-])O [NO3^−, nitrate] |  | 9 | 8.13 | Ki [3, 5]: 7 mM
11 | [O]=[Re](=[O])(=[O])[OH] [ReO4^−, perrhenate] |  | > 50 | 16.7 | 
12 | [N-]=[N+]=[N-] [N3^−, azide] | 45.2 | > 50 |  | inhibition of hCA II in words [4]: well inhibited
13 | O=C(O)O [CO3^2, carbonate] | > 100 | > 50 |  | 
14 | O=S(O)O [HSO3^−, bisulfite] |  | > 50 | > 100 | Ki [3, 5]: 18 mM
15 | O=S(=O)(O)OOS(=O)(=O)O [S2O8^2−, peroxydisulfate] |  | > 50 | > 100 | 
16 | N#CS [SCN^−, thiocyanate] | 8.39 | > 50 |  | 
17 | [Br-].[K+] [Br^−, bromide] | 18.6 | > 50 |  | Ki [4]: 63 mM; Ki ([3]; pH 8.3): 4 mM

Row | Compound | Ki ([1]; pH 8.3) [mM] | Ki ([2]; pH 8.3, read-out: KI MreCA) [mM] | Ki [1, 5] [mM] | further results
18 | S=C(S)S [CS3^2−, trithiocarbonate] |  | 0.92 | 1.77 | Ki [3, 5]: 0.0087 mM
19 | I [I^−, iodide] |  | 8.6 | 8.73 | Ki [3, 5]: 0.3 mM
20 | O=[Te](=O)(O)O [TeO4^2−, tellurate] | 5.75 | 0.56 |  | Ki ([3]; pH 8.3): 0.66 mM
21 | CCN(CC)C(=S)S [Et2NCS2^−, diethyldithiocarbamate] |  |  | 0.3 | Ki [3, 5]: 0.00079 mM; Ki [2]: 0.075 mM
22 | OB(O)c1ccccc1 [PhB(OH)2, phenylboronic acid] | 0.089 |  |  | inhibition of hCA I in words [3]: not well inhibited; Ki ([3]; pH 8.3): 58.6 mM; Ki [2]: 8.7 mM
23 | F [F^−, fluoride] | 7.13 | > 50 |  | 
24 | [O-][Cl+3]([O-])([O-])O [ClO4^−, perchlorate] | > 100 | 9.2 |  | 
25 | osmate [OsO5^2−] | 6.16 | 8.5 |  | 
26 | O=[As](O)(O)c1ccccc1 [PhAsO3H2, phenylarsonic acid] | 0.09 |  |  | Ki [4]: 49.2 mM; Ki ([3]; pH 8.3): 31.7 mM
27 | [O]=[Ru](=[O])(=[O])=[O] [RuO4^−, perruthenate] |  | 7.4 | 8.82 | 
28 | O=NO [NO2^−, nitrite] | 7.56 | > 50 |  | 
29 | O=P(O)(O)OP(=O)(O)O [P2O7^2−, pyrophosphate] |  | > 50 | 6.03 | Ki [3, 5]: 25.8 mM
30 | F[P-](F)(F)(F)(F)F [PF6^−, esafluorofosfato] |  | 3.9 | 6.47 | 
31 | N#CO [CNO^−, cyanate] | 6.81 | > 50 |  | 
32 | [O]=[Sn]([OH])[OH] [SnO3^2−, stannate] | 5.07 | 0.56 |  | 
33 | O=C(O)O [HCO3^−, bicarbonate] | 0.59 | 0.86 |  | 
34 | O=S(=O)(O)C(F)(F)F [CF3SO3^−, trifalate] |  | 4.5 | 2.28 | 

Source: paper PMC6680850, “Anion Inhibition Profile of the β-Carbonic Anhydrase from the Opportunist Pathogenic Fungus Malassezia restricta Involved in Dandruff and Seborrheic Dermatitis” (Metabolites, 2019)
